In brackets after ≈: the same amount, converted by molar mass.
Legend:
Assay type in all cases: physicochemical
[1] = Analysis of reaction of NQ-S to NQ-OH in KOH (cyclic voltammetry and UV-vis spectroscopy); details: 0.01 M in 1 M KOH, CV; for redox potential: NQ-S right after dissolution
Protocol: Initially, 0.01 M NQ-S was dissolved in 1 M KOH and then the NQ-S solution was stayed for few hours. Changes in a chemical structure of the NQ-S solution were observed using cyclic voltammetry and UV-vis spectroscopy.
For the UV-vis spectroscopy, the following three samples were prepared: (i) NQ-S that is just dissolved in KOH (sample 1); (ii) NQ-S dissolved in KOH for 6 hours (sample 2); and (iii) pristine Lawsone (sample 3). In FIG. 2B, a peak observed at 455 nm corresponds to a peak for NQ-OH, and the peak was clearly observed in sample 2.

[2] = Half-cell cyclic voltammetry, kinetic parameters of NQ derivatives; details: 0.01 M in 1 M KOH; for redox potential difference (average difference of anodic and cathodic redox potentials, ΔEp,avg): glassy carbon electrode, scan rate 10 to 100 mV·s^−1
Protocol: To observe electrochemical performance of active species, various half-cell tests were performed as follows by using a computer connected potentiostat (SP-240, BioLogic). Ag/AgCl (soaked in 3.0 M NaCl) and Pt wire were used as a reference electrode and a counter electrode, respectively. […] To this end, kinetic parameters of NQ derivatives were measured and compared. To calculate electrochemical properties of NQ derivatives, the CV curves were used. […] A value of D was measured by a Randles-Sevick's equation.

[3] = Analysis of ratio of Lawsone and NQ-S (CV curves); details: 0.1 M NQ-S dissolved in 1 M KOH (one third transformed)
Protocol: Samples of Lawsone and NQ-S having different ratios were prepared, and a resistance and a solubility of samples were measured electrochemically (by cyclic voltammetry (CV) and electrochemical impedance spectroscopy (EIS)) and optically (by UV-vis spectroscopy).
[…]; (iv) only Lawsone (0.3 M Lawsone); and (v) only NQ-S (0.3 M NQ-S).

[4] = Solubility analysis of NQ derivatives in KOH by UV-vis spectroscopy; details: 1 M KOH solution, aqueous buffer, thermodynamic from solid, stirred for 24 hours, upper part measured by UV-vis, substance alone
Protocol: Excessive amounts of solutions of NQ derivatives were prepared. […] When a further period of time elapsed after stirring was stopped, each solution was divided into two parts (upper and lower parts). 400 microliters (L) of the upper part of the solution was collected and observed by a UV-vis spectrometer. An absorbance was measured to determine concentrations of NQ derivatives.
As a control group, a solution with a known concentration of Lawsone was prepared, and UV-vis spectroscopy of the solution was measured. When absorbance peaks of the control group and a sample of NQ derivatives were compared, concentrations of the samples were calibrated and calculated.

O=C1C=C(S(=O)(=O)[O-])c2ccccc2C1=O.[Na+] [NQ-S, 1,2-naphthoquinone-4-sulfonic acid sodium salt]
transformation of NQ-S into NQ-OH in KOH ([1]; staying time 6 hours): completely transformed into NQ-OH
redox potential [1]: −0.1 V vs Ag/AgCl
redox potential difference (average difference of anodic and cathodic redox potentials, ΔEp,avg) [2]: 0.077 V
desirable NQ-OH formed by transformation of NQ-S [3]: 0.033 M

O=C1C=C(O)C(=O)c2ccccc21 [Lawsone, 2-hydroxy-1,4-naphthoquinone, reference compound]
redox potential [1]: −0.55 V vs Ag/AgCl
solubility at 24 h [4]: 420 mM (≈ 73.1 mg/mL)
diffusion coefficient D ([2]; CV, Randles-Sevick's equation): 1.75·10^−6 cm^2·s^−1
redox potential difference (average difference of anodic and cathodic redox potentials, ΔEp,avg) [2]: 0.077 V
